Experimental findings from patent US20250136578A1 (Kolm Therapeutics Inc., priority 2023, published 2025) are described below.

The IC50 is the midpoint of a concentration-inhibition curve.

One assay deals with AR / CBP ternary complex (Homo sapiens, UniProt P10275+Q92793). Description: Ternary complex formation assay (sandwich ELISA, AR capture, CBP antibody detection) in VCaP cell lysates. The class given is cell-based. In short, it runs like this: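 VCaP cells in 5% charcoal-stripped FBS were cultured ≥3 days and then given bifunctional compound for 1.5 h. Lysates went onto AR-antibody-coated plates. Bound CBP (or p300) was detected with a rabbit antibody plus HRP anti-rabbit, using QuantaRed chemifluorescence (ex 570/em 585) read immediately, at 5 min and at 15 min.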
For orientation: In an ELISA, binding on a coated surface is turned into a signal by an enzyme label.

A further assay has as its system VCaP cells. Description: VCaP growth inhibition assay (CTG). To be noted: Homo sapiens, 216 h, 30 pM R1881, 9 days. The class given is cell-based. In short, it runs like this:
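VCaP cells in phenol red-free DMEM with 5% charcoal-stripped serum were stimulated with 30 pM R1881 (final) and treated with compound from 100 nM to 10 fM final (1:5 dilutions) for 9 days at 37 °C. Viability was read by CellTiter-Glo luminescence, and IC50 came from 4-parameter logistic fits.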

[1] abbreviates: treated 1.5 hours, rabbit CBP or p300 antibody detection, average, read-out: Average Ternary Complex.
Where [2] appears, read: read-out: Average Ternary Complex, treated 1.5 hours, rabbit CBP or p300 antibody detection.

Like-named read-outs stand apart in the source and are kept apart here.

Sequence of AR / CBP ternary complex (P10275 whole entry): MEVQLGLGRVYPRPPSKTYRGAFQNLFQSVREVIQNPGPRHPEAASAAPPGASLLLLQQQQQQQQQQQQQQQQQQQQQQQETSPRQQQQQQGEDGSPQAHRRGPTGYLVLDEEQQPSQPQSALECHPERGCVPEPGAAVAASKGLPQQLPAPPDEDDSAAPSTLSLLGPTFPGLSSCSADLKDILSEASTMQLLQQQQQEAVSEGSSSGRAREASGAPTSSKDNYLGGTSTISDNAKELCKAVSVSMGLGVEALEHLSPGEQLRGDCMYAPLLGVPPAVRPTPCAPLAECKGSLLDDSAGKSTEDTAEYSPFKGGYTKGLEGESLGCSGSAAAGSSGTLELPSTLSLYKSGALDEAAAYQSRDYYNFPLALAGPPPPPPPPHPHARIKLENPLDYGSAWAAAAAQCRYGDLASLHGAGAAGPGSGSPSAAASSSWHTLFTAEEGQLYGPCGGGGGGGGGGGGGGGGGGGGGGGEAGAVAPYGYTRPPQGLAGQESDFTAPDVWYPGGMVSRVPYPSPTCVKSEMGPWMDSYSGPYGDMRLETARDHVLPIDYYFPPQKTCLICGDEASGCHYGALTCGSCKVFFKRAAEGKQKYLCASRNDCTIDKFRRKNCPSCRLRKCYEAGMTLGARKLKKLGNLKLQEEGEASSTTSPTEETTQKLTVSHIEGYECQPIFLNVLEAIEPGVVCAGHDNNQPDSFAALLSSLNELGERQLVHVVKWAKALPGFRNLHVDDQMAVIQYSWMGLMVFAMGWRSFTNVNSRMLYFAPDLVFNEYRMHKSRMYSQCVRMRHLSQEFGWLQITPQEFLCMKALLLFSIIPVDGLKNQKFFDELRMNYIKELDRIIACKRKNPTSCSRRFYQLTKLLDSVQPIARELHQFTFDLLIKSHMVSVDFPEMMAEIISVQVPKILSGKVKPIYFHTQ
Sequence of AR / CBP ternary complex (Q92793 2-2442): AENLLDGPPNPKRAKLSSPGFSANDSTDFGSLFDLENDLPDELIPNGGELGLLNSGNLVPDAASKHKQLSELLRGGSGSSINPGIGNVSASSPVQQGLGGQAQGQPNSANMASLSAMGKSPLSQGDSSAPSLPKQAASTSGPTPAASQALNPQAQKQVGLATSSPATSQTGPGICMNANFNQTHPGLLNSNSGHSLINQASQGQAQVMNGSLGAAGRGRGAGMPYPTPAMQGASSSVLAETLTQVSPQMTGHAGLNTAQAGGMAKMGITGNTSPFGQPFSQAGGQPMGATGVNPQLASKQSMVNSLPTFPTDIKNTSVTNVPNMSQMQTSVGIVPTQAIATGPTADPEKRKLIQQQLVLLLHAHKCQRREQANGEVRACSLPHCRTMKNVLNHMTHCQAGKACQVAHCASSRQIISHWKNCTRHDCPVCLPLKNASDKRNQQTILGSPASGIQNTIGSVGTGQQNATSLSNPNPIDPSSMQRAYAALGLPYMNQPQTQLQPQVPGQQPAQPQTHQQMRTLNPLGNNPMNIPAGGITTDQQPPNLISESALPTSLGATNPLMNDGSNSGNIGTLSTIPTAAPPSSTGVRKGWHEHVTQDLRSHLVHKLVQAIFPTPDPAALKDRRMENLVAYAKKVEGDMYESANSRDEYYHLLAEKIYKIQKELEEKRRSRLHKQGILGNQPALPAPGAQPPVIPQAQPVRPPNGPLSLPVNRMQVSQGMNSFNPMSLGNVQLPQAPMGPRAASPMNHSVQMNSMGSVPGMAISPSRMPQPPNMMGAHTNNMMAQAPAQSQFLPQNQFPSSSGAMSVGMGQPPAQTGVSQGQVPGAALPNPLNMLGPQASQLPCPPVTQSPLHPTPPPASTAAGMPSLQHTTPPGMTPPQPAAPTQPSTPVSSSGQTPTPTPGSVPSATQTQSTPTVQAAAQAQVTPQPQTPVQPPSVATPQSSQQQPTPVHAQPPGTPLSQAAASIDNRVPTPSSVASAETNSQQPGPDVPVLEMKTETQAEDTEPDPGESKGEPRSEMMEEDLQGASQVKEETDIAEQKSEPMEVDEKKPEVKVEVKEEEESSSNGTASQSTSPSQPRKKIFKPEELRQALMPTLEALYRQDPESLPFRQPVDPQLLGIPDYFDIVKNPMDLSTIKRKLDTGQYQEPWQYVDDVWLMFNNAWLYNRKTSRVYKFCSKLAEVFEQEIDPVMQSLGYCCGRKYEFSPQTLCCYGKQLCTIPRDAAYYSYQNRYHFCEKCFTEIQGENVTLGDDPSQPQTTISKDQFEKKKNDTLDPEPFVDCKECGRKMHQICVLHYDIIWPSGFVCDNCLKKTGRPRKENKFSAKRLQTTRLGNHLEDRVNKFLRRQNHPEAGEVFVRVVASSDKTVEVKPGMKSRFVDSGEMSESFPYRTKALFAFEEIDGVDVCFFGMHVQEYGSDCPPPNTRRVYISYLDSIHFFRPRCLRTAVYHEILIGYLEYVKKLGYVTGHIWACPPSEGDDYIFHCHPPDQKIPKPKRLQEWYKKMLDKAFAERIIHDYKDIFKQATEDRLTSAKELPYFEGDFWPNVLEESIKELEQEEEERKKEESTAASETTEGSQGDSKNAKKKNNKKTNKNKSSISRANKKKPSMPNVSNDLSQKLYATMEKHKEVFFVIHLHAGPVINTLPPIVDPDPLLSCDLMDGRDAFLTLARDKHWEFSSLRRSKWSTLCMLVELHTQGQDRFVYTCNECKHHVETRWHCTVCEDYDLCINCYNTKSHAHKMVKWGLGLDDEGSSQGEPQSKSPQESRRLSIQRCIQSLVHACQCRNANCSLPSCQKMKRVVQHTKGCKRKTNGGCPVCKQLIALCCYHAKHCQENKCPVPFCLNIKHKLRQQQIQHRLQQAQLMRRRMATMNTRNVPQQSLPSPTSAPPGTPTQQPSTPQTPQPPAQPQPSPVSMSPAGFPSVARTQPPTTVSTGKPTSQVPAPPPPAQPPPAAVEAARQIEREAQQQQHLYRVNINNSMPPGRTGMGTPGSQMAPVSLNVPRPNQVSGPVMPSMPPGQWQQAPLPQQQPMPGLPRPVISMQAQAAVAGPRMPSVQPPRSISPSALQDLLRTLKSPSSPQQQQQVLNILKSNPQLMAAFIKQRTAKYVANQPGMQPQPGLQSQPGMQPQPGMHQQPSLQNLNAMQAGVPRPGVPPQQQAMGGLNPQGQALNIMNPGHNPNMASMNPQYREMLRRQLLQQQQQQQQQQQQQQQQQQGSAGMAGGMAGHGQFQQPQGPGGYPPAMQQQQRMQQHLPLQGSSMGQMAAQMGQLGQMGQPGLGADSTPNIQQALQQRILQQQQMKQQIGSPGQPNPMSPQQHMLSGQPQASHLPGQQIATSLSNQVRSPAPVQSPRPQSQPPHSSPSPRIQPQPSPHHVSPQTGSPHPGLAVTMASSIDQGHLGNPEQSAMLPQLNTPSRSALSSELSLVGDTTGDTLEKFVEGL

On to `Cc1cc2c(N3CCN(C)c4cc(-c5cnn(C)c5)c(C#N)cc43)cc(OC3CCN(c4ccc(C(=O)N[C@H]5CC[C@H](Oc6ccc(C#N)c(Cl)c6)CC5)nn4)CC3)cc2n(C)c1=O` [Compound 35, N-[4-(3-chloro-4-cyano-phenoxy)cyclohexyl]-6-[4-[[5-[7-cyano-4-methyl-6-(1-methylpyrazol-4-yl)-2,3-dihydroquinoxalin-1-yl]-1,3-dimethyl-2-oxo-7-quinolyl]oxy]-1-piperidyl]pyridazine-3-carboxamide], for which the EC50 on AR / CBP ternary complex (setting [1]) was > 100 nM. The same compound displayed an IC50 with VCaP cells of 0.1 to 1 nM.

Take `CC(=O)N1CCc2c(c(-c3cccc4cc(-c5cnn(C6CCC7(CC6)CCN(c6ccc(C(=O)N[C@H]8CC[C@H](Oc9ccc(C#N)c(Cl)c9)CC8)nn6)CC7)c5)ncc34)nn2C2CCOCC2)C1` [Compound 182]: the EC50 at AR / CBP ternary complex (setting [1]) is < 1 nM. Moreover, in the assay with VCaP cells, the concentration for half-maximal inhibition (IC50) was ≤ 0.1 nM.

As for `CC(=O)N1CCc2c(c(N3CCCc4cc(-c5cnn(C)c5)c(C(F)F)cc43)nn2C2CCC3(CC2)CC(N2CCN(c4ccc(C(=O)N[C@H]5CC[C@H](Oc6ccc(C#N)c(Cl)c6)CC5)nn4)CC2)C3)C1` (stereo partly shown) [Compound 208, 6-[4-[7-[5-acetyl-3-[7-(difluoromethyl)-6-(1-methylpyrazol-4-yl)-3,4-dihydro-2H-quinolin-1-yl]-6,7-dihydro-4H-pyrazolo[4,3-c]pyridin-1-yl]spiro[3.5]nonan-2-yl]piperazin-1-yl]-N-[4-(3-chloro-4-cyano-phenoxy)cyclohexyl]pyridazine-3-carboxamide], the EC50 on AR / CBP ternary complex (setting [2]) was < 1 nM. Further, in the assay on VCaP cells, the IC50 was ≤ 0.1 nM.

As to `CC(=O)N1CCc2c(c(-c3cccc4cc(-c5cnn(CCOC6CCN(c7ccc(C(=O)N[C@H]8CC[C@H](Oc9ccc(C#N)c(Cl)c9)CC8)nn7)CC6)c5)ncc34)nn2C)C1` [Compound 65, 6-[4-[2-[4-[8-(5-acetyl-1-methyl-6,7-dihydro-4H-pyrazolo[4,3-c]pyridin-3-yl)-3-isoquinolyl]pyrazol-1-yl]ethoxy]-1-piperidyl]-N-[4-(3-chloro-4-cyano-phenoxy)cyclohexyl]pyridazine-3-carboxamide], the EC50 at AR / CBP ternary complex (setting [1]) is < 1 nM. Moreover, the IC50 in the assay with VCaP cells is ≤ 0.1 nM.

Regarding `CN1C(=O)CCc2cc(-c3cccc4cc(-c5ccc(CCC6CCN(c7ccc(C(=O)N[C@H]8CC[C@H](Oc9ccc(C#N)c(Cl)c9)CC8)nn7)CC6)nc5)ncc34)ccc21` [Compound 58, N-[4-(3-chloro-4-cyano-phenoxy)cyclohexyl]-6-[4-[2-[5-[8-(1-methyl-2-oxo-3,4-dihydroquinolin-6-yl)-3-isoquinolyl]-2-pyridyl]ethyl]-1-piperidyl]pyridazine-3-carboxamide], the EC50 on AR / CBP ternary complex (setting [1]) lay in the range of 10 to 100 nM. Besides, the IC50 with VCaP cells is > 100 nM.

Turning to `CC(=O)N1CCc2c(c(N3CCCc4cc(-c5cnn(C)c5)c(C(F)F)cc43)nn2C2CCN(C(=O)C3CCN(c4ccc(C(=O)N[C@H]5CC[C@H](Oc6ccc(C#N)c(Cl)c6)CC5)nn4)CC3)CC2)C1` [Compound 2], on AR / CBP ternary complex (setting [1]), the EC50 was < 1 nM. In addition, in the assay on VCaP cells, the half-inhibitory concentration (IC50) was ≤ 0.1 nM.

For `CC(=O)N1CCc2c(c(N3CCCc4cc(-c5cnn(C)c5)c(C(F)F)cc43)nn2C2CCN(CC3CCN(c4ccc(C(=O)N[C@H]5CC[C@H](Oc6ccc(C#N)c(Cl)c6)CC5)nn4)CC3(C)C)CC2)C1` (stereo partly shown) [Compound 230, 6-[4-[[4-[5-acetyl-3-[7-(difluoromethyl)-6-(1-methylpyrazol-4-yl)-3,4-dihydro-2H-quinolin-1-yl]-6,7-dihydro-4H-pyrazolo[4,3-c]pyridin-1-yl]-1-piperidyl]methyl]-3,3-dimethyl-1-piperidyl]-N-[4-(3-chloro-4-cyano-phenoxy)cyclohexyl]pyridazine-3-carboxamide], the EC50 at AR / CBP ternary complex (setting [1]) was < 1 nM. Further, the IC50 in the assay with VCaP cells was ≤ 0.1 nM.

`CC(=O)N1CCc2c(c(N3CCCc4cc(-c5cnn(C)c5)c(C(F)F)cc43)nn2C2CCN(C[C@@H]3CCN(c4ccc(C(=O)N[C@H]5CC[C@H](Oc6ccc(C#N)c(Cl)c6)CC5)nn4)C[C@@H]3C)CC2)C1` [Compound 233]: the EC50 at AR / CBP ternary complex (setting [1]) is < 1 nM. Besides, in the assay on VCaP cells, the half-inhibitory concentration (IC50) was ≤ 0.1 nM.

Turning to `CC(=O)N1CCc2c(c(N3CCCc4cc(-c5cnn(C)c5)c(C(F)F)cc43)nn2[C@H]2CC[C@@]3(CCCN(c4ccc(C(=O)N[C@H]5CC[C@H](Oc6ccc(C#N)c(Cl)c6)CC5)nn4)C3)CC2)C1` [Compound 267, 6-[9-[5-acetyl-3-[7-(difluoromethyl)-6-(1-methylpyrazol-4-yl)-3,4-dihydro-2H-quinolin-1-yl]-6,7-dihydro-4H-pyrazolo[4,3-c]pyridin-1-yl]-2-azaspiro[5.5]undecan-2-yl]-N-[4-(3-chloro-4-cyano-phenoxy)cyclohexyl]pyridazine-3-carboxamide], the EC50 on AR / CBP ternary complex (setting [1]) was < 1 nM. The IC50 in the assay with VCaP cells lay within 1 to 100 nM.

For `CC(=O)N1CCc2c(c(N3CCCc4cc(-c5cnn(C)c5)c(C(F)F)cc43)nn2C2CCN(C[C@H]3[C@H](C)CN(c4ccc(C(=O)N[C@H]5CC[C@H](Oc6ccc(C#N)c(C)c6C)CC5)nn4)C[C@@H]3C)CC2)C1` [Compound 288], the EC50 on AR / CBP ternary complex (setting [1]) was < 1 nM. The IC50 in the assay with VCaP cells was ≤ 0.1 nM.

Consider `Cn1c(=O)sc2ccc(N3CCCc4cc(-c5ccc(CCC6CCN(c7ccc(C(=O)N[C@H]8CC[C@H](Oc9ccc(C#N)c(Cl)c9)CC8)nn7)CC6)nc5)c(C(F)F)cc43)cc21` [Compound 56, N-[4-(3-chloro-4-cyano-phenoxy)cyclohexyl]-6-[4-[2-[5-[7-(difluoromethyl)-1-(3-methyl-2-oxo-1,3-benzothiazol-5-yl)-3,4-dihydro-2H-quinolin-6-yl]-2-pyridyl]ethyl]-1-piperidyl]pyridazine-3-carboxamide], for which the EC50 at AR / CBP ternary complex (setting [1]) is 1 to 10 nM. Also, the IC50 in the assay on VCaP cells was > 100 nM.

`CC(=O)N1CCc2c(c(-c3cccc4cc(-c5ccc(CCC6CCN(c7ccc(C(=O)N[C@H]8CC[C@H](Oc9ccc(C#N)c(Cl)c9)CC8)nn7)CC6)nc5)ncc34)nn2C2CCOCC2)C1` [Compound 25, 6-[4-[2-[5-[8-(5-acetyl-1-tetrahydropyran-4-yl-6,7-dihydro-4H-pyrazolo[4,3-c]pyridin-3-yl)-3-isoquinolyl]-2-pyridyl]ethyl]-1-piperidyl]-N-[4-(3-chloro-4-cyano-phenoxy)cyclohexyl]pyridazine-3-carboxamide]: the EC50 at AR / CBP ternary complex (setting [1]) is < 1 nM. Further, in the assay on VCaP cells, the 50% inhibitory concentration (IC50) was ≤ 0.1 nM.

Regarding `CC(=O)N1CCc2c(c(N3CCCc4cc(-c5ccc(CCC6CCN(c7ccc(C(=O)N[C@H]8CC[C@H](Oc9ccc(C#N)c(Cl)c9)CC8)nn7)CC6)cc5)ncc43)nn2C2CCOCC2)C1` [Compound 156, 6-[4-[2-[4-[1-(5-acetyl-1-tetrahydropyran-4-yl-6,7-dihydro-4H-pyrazolo[4,3-c]pyridin-3-yl)-3,4-dihydro-2H-1,7-naphthyridin-6-yl]phenyl]ethyl]-1-piperidyl]-N-[4-(3-chloro-4-cyano-phenoxy)cyclohexyl]pyridazine-3-carboxamide], the EC50 at AR / CBP ternary complex (setting [1]) fell in the range of 1 to 10 nM. In addition, in the assay with VCaP cells, the IC50 was in the range of 1 to 100 nM.

As to `CC(=O)N1CCc2c(c(-c3cccc4cc(-c5ccc(CCC6CC7(C6)CN(c6ccc(C(=O)N[C@H]8CC[C@H](Oc9ccc(C#N)c(Cl)c9)CC8)nn6)C7)nc5)ncc34)nn2C)C1` [Compound 51, 6-[6-[2-[5-[8-(5-acetyl-1-methyl-6,7-dihydro-4H-pyrazolo[4,3-c]pyridin-3-yl)-3-isoquinolyl]-2-pyridyl]ethyl]-2-azaspiro[3.3]heptan-2-yl]-N-[4-(3-chloro-4-cyano-phenoxy)cyclohexyl]pyridazine-3-carboxamide], the EC50 on AR / CBP ternary complex (setting [1]) is < 1 nM. The same compound returned an IC50 in the assay on VCaP cells of 0.1 to 1 nM.

`CC(=O)N1CCc2c(c(N3CCCc4cc(-c5cnn(C)c5)c(C)cc43)nn2C2CCN(CC3CCN(c4ccc(C(=O)N[C@H]5CC[C@H](Oc6ccc(C#N)c(C)c6C)CC5)nn4)CC3(C)C)CC2)C1` (stereo partly shown) [Compound 292, 6-[4-[[4-[5-acetyl-3-[7-methyl-6-(1-methylpyrazol-4-yl)-3,4-dihydro-2H-quinolin-1-yl]-6,7-dihydro-4H-pyrazolo[4,3-c]pyridin-1-yl]-1-piperidyl]methyl]-3,3-dimethyl-1-piperidyl]-N-[4-(4-cyano-2,3-dimethyl-phenoxy)cyclohexyl]pyridazine-3-carboxamide]: the EC50 on AR / CBP ternary complex (setting [1]) was < 1 nM. In addition, in the assay with VCaP cells, the IC50 is ≤ 0.1 nM.

Consider `CC(=O)N1CCc2c(c(N3CCCc4cc(-c5cnn(C)c5)c(C)cc43)nn2C2CCN(C3CCC4(CC3)CN(c3ccc(C(=O)N[C@H]5CC[C@H](Oc6ccc(C#N)c(C)c6)CC5)nn3)C4)CC2)C1` [Compound 298, 6-[7-[4-[5-acetyl-3-[7-methyl-6-(1-methylpyrazol-4-yl)-3,4-dihydro-2H-quinolin-1-yl]-6,7-dihydro-4H-pyrazolo[4,3-c]pyridin-1-yl]-1-piperidyl]-2-azaspiro[3.5]nonan-2-yl]-N-[4-(4-cyano-3-methyl-phenoxy)cyclohexyl] pyridazine-3-carboxamide], for which, on AR / CBP ternary complex (setting [1]), the EC50 was < 1 nM. Also, the 50% inhibitory concentration (IC50) in the assay with VCaP cells fell in the range of 0.1 to 1 nM.

Turning to `CC(=O)N1CCc2c(c(N3CCCc4cc(-c5cnn(C)c5)c(C(F)F)cc43)nn2C2CCN(CC3CC4CCC(C3)N4c3ccc(C(=O)N[C@H]4CC[C@H](Oc5ccc(C#N)c(Cl)c5)CC4)nn3)CC2)C1` (stereo partly shown) [Compound 126, 6-[3-[[4-[5-acetyl-3-[7-(difluoromethyl)-6-(1-methylpyrazol-4-yl)-3,4-dihydro-2H-quinolin-1-yl]-6,7-dihydro-4H-pyrazolo[4,3-c]pyridin-1-yl]-1-piperidyl]methyl]-8-azabicyclo[3.2.1]octan-8-yl]-N-[4-(3-chloro-4-cyano-phenoxy)cyclohexyl]pyridazine-3-carboxamide], the EC50 on AR / CBP ternary complex (setting [2]) is < 1 nM. The IC50 with VCaP cells was ≤ 0.1 nM.
